# Assay results from patent publication US20240299294A1, “TARGETED DELIVERY OF EFFECTIVE THERAPEUTIC MEDICATIONS TO THE RESPIRATORY TRACT” (Amphastar Pharmaceuticals, Inc., priority 2020, published 2024).
# pEC50: −log10 of the molar value. Read-outs that look alike come from different tables or passages of the source.
# Key:
# in vivo [1] = assay: in vivo; set-up: species or system mice; conditions: mouse
# Method: The breathing tank 400 is a specially designed stainless steel breathing tank, which is used for mice to breathe in aerosolized formulations of the medications described earlier in the Examples. At the start of each treatment session, a specific number of sprays of a medication formulation were sprayed into the pre-cleaned tank. To ensure consistent concentration of test article, a stirring fan installed inside the tank was started at a speed of 400 rpm before the first spray of the test articles (such as, the medications). Thirty seconds after the last spray, eight mice were mounted to the inhalation chamber to breathe in aerosolized formulations of the medications from the breathing tank for a specified duration. Animals were then taken off the breathing tank (defined as the “0” time point post dosing).
# The purpose of the study is to evaluate the lung delivery characteristics of single dose HCQ inhalation in a mouse model. […] Thirty seconds after the last spray (t=0 minute), eight mice were mounted to the inhalation chamber to breathe the medication aerosol from the breathing tank for 10 minutes.
# Mice were euthanized and mice lung samples were collected and homogenated at eight time points of 10′, 30′, 45′, 1 h, 2 h, 3 h, 4 h and 6 h after treatment. Four mice were used at each time point and in total 32 mice were studied.
# in vivo [2] = conditions: mouse
# Method: For the single-dose study, 48 mice were treated with the highest dose level (16 sprays) of Formulation 11. Twelve time points were measured: baseline (within one hour before dosing), 5 min, 15 min, 30 min, 1 h, 2 h, 3 h, 4 h, 6 h, 9 h, 24 h and 48 h post dosing. Each animal was sampled twice at two different time points and four mice per gender were used at each time point.
# mice = assay: 5-day repeated-dose local and systemic toxicity study of HCQ inhalation (Example 12); format: in vivo
# Method: A total of 200 mice were used, in which 40 mice (male:female=1:1) were assigned to each study arm.
# Mice were dosed four sessions a day for 5 days, with 3 hours interval between two consecutive treatment sessions. Each session was a 6-minute nose-only inhalation treatment after spraying the designated articles (4, 8 or 16 sprays) into the 21.5 L breathing tank.
# After the treatment, 24 mice (male:female=1:1) were sacrificed on Day 6 (or Day-1 post completion of treatment, PCT Day-1) for acute toxicity evaluation and 16 mice (male:female=1:1) were sacrificed on Day 19 (PCT Day-14) for recovery evaluation.
# Standard local toxicity evaluation items included: (1) general safety including in-life daily observation and body weight measurement; (2) gross macroscopic observation and organ weight measurement; (3) clinical pathology including hematology and blood chemistry tests; and (4) microscopic histopathological examination.
# SARS-CoV-2 virus = assay: microbe, parasite or virus in culture; format: cell-based; conditions: Severe acute respiratory syndrome coronavirus 2, VeroE6/TMPRSS2
# [3] = Cell viability (MTT) assay, CC50, Study APS002-1; format: cell-based; conditions: African green monkey, Vero E6-TMPRSS2 cells
# Method: In the antiviral cell assay, Vero E6-TMPRSS2 cells were seeded into 96 well plates and grown to 80-90% confluency. Compounds were prepared using an 8-point, half-log (˜3-fold) dilution starting at 100 μM. Vehicle (Placebo) and positive control (Remdesivir) wells were included to control for any influence on cell viability. After one hour, compounds were removed and virus was added at a single concentration (100× Median Tissue Culture Infectious Dose (TCID50)), together with equivalent serial dilutions of test compound. Following infection/treatment, cells were incubated for a further hour. After infection, virus/treatment was removed and an overlay medium was added to the cells, together with equivalent serial dilutions of test compound. Cells were visually inspected daily for the appearance of any cytopathic effect (“CPE”). A cell viability (MTT) assay was performed once CPE was complete.
# [4] = in vivo
# in vivo [5] = conditions: mouse; remark: listed apart in the source
# [6] = cited from earlier work
# [7] = Dose range and dose response study of HCQ for lung delivery (Example 9); conditions: mouse, in vivo, 16 sprays
# [8] = Estimation of HCQ concentration in alveolar lining fluid (ALF) (Example 11); conditions: mouse, in vivo, 10 sprays
smiles,measurement,setting,value
"CCN(CCO)CCCC(C)Nc1ccnc2cc(Cl)ccc12 (stereo not drawn) [HCQ, Hydroxychloroquine]",appearance of mice after the treatment,in vivo [1],appeared healthy and normal
same,half-life,in vivo [1]; inhaled or intranasal,4.6 h
same,half-life,in vivo [2]; both,≥ 4 h
same,Kp,"in vivo [2]; both, in vivo, 16 sprays",≥ 25
same,Kp at 0.083 h,"in vivo [2]; female, in vivo, 16 sprays",66.3
same,Kp at 0.25 h,"in vivo [2]; female, in vivo, 16 sprays",50.6
same,Kp at 0.5 h,"in vivo [2]; female, in vivo, 16 sprays",38
same,Kp at 1 h,"in vivo [2]; female, in vivo, 16 sprays",100
same,Kp at 3 h,"in vivo [2]; female, in vivo, 16 sprays",193
same,Kp at 24 h,"in vivo [2]; female, in vivo, 16 sprays",26.9
same,concentration at 0.083 h,"in vivo [2]; female, in vivo, 16 sprays",133 ng/mL
same,concentration at 0.25 h,"in vivo [2]; female, in vivo, 16 sprays",89.2 ng/mL
same,concentration at 0.5 h,"in vivo [2]; female, in vivo, 16 sprays",93.6 ng/mL
same,concentration at 1 h,"in vivo [2]; female, in vivo, 16 sprays",40.2 ng/mL
same,concentration at 3 h,"in vivo [2]; female, in vivo, 16 sprays",16.8 ng/mL
same,concentration at 24 h,"in vivo [2]; female, in vivo, 16 sprays",12.6 ng/mL
same,Kp at 0.083 h,"in vivo [2]; male, in vivo, 16 sprays",58.4
same,Kp at 0.25 h,"in vivo [2]; male, in vivo, 16 sprays",51.5
same,Kp at 0.5 h,"in vivo [2]; male, in vivo, 16 sprays",85.2
same,Kp at 1 h,"in vivo [2]; male, in vivo, 16 sprays",90.9
same,Kp at 3 h,"in vivo [2]; male, in vivo, 16 sprays",250
same,Kp at 24 h,"in vivo [2]; male, in vivo, 16 sprays",56.5
same,concentration at 0.083 h,"in vivo [2]; male, in vivo, 16 sprays",163 ng/mL
same,concentration at 0.25 h,"in vivo [2]; male, in vivo, 16 sprays",92 ng/mL
same,concentration at 0.5 h,"in vivo [2]; male, in vivo, 16 sprays",55 ng/mL
same,concentration at 1 h,"in vivo [2]; male, in vivo, 16 sprays",40.2 ng/mL
same,concentration at 3 h,"in vivo [2]; male, in vivo, 16 sprays",13.2 ng/mL
same,concentration at 24 h,"in vivo [2]; male, in vivo, 16 sprays",4.9 ng/mL
same,"local toxicity, nasal turbinates and larynx","mice; Formulation 11, PCT-Day 1",low incidence of minor changes
same,histopathological finding in the thymus,"mice; mouse, in vivo",minimal to mild tingible body macrophages
same,"local toxicity, histopathological examination of six organs","mice; mouse, in vivo",No dose related abnormalities
same,pEC50,"SARS-CoV-2 virus; Vero E6-TMPRSS2 cells, virus 100× TCID50, read-out: EC50",4.95
same,CC50,[3],> 100 µM
same,time the delivered medication can be detected in the mouse lungs,[4],no less than 24 h
same,half-life,in vivo [5]; both,6 to 8 h
same,half-life,in vivo [5],4.6 to 7.8 h
same,half-life,[6]; HCQ oral tablet delivery,123.5 days
same,share of oral tablet dose distributed to the plasma and ultimately reaching the lungs and alveoli,"[6]; in vivo, po",about 0.07%
same,concentration at 0.083 h,[7]; female,8820 ng/g
same,concentration at 0.25 h,[7]; female,4510 ng/g
same,concentration at 0.5 h,[7]; female,3560 ng/g
same,concentration at 1 h,[7]; female,4040 ng/g
same,concentration at 3 h,[7]; female,3250 ng/g
same,concentration at 24 h,[7]; female,339 ng/g
same,concentration at 0.083 h,[7]; male,9510 ng/g
same,concentration at 0.25 h,[7]; male,4740 ng/g
same,concentration at 0.5 h,[7]; male,4680 ng/g
same,concentration at 1 h,[7]; male,3660 ng/g
same,concentration at 3 h,[7]; male,3300 ng/g
same,concentration at 24 h,[7]; male,277 ng/g
same,concentration at 10 min,[8],476 µM
same,concentration at 6 h,[8],188 µM
CCC(CC)COC(=O)[C@H](C)N[P@](=O)(OC[C@H]1O[C@@](C#N)(c2ccc3c(N)ncnn23)[C@H](O)[C@@H]1O)Oc1ccccc1 [Remdesivir],pEC50,SARS-CoV-2 virus,5.63
same,CC50,[3],> 20 µM
